Laboratory results published in patent publication US20190343922A1, “HISTATIN FOR CORNEAL WOUND HEALING AND OCULAR SURFACE DISEASE” (Rapid Pathogen Screening, Inc., priority 2012, published 2019).

Columns and labels:
corneal wounds = test: Corneal epithelial defect wound healing in rabbits (fluorescein staining, computerized area determination); type: in vivo, New Zealand White rabbits
Protocol: The study disclosed herein evaluates and quantifies the wound healing effects of histatins on the ocular surface of New Zealand White rabbits.
Epithelial defects are created in the right eye (oculus dexter, OD) of 12 New Zealand White rabbits. Due to animal regulations, bilateral wounding is not permitted. After the epithelial defects are made, the rabbits are randomized into treatment groups. Two (2) groups are treated with different cyclized histatin concentrations: 0.1 μg/ml and 10 μg/ml dissolved into an ophthalmic artificial tear preparation and delivered to the rabbits as an eye drop three times daily. Histatins known in the art, including, but not limited to, amino acid SEQ ID NOS: 1 through 33, which include Hst-1 (SEQ ID NO: 4), Hst-2 (SEQ ID NO: 5), Hst-3 (SEQ ID NO: 6), Hst-5 (SEQ ID NO: 30), and sortase cyclized histatin (SEQ ID NO: 33), may be used in these studies or in treatment protocols. […] This control group should receive the same vehicle identical to the other two groups but without histatin. An over-the-counter artificial tear preferably serves as the vehicle. The initial study included four (4) animals/group in three (3) groups, for a total of twelve rabbits.
Each rabbit group is preferably given moxifloxicin treatment to prevent infection.
(§1) The corneal wounds are then evaluated daily for the corneal wound healing abilities of histatin via fluorescein staining, fluorescent slit lamp biomicrophotography and computerized area determination. Evaluators are masked to the therapeutic treatment given to the rabbits. After healing, two (2) animals from each group are euthanized, and the corneas collected for histological processing (H&E staining with subsequent evaluation by veterinary histopathologist). The decision to perform histopathologic analysis after tissue procurement is made only if there is proven difference in healing between the different treatment groups and the controls. At study termination (study preferably continues for seven days), the remaining animals are euthanized.

rabbit corneas = settings: in vivo
Protocol: as §1
The histatin used in this study was cyclized histatin 1.

cyclo(DNLPETGGDSHEKRHHGYRRKFHEKHHSHREFPFYGDYGSNYLY) [cyclized histatin 1]
Corneal wound size (corneal wounds; 0.1 μg/ml eye drop three times daily, 54 hours post wound): 0.00 ± 0.00 mm^2 | Corneal wound size (corneal wounds; 0.1 μg/ml eye drop three times daily, 72 hours post wound): 0.00 ± 0.00 mm^2 | Percentage of 1 hour post wound size (corneal wounds; 0.1 ug/ml, 0 hours post wound): 100% | Percentage of 1 hour post wound size (corneal wounds; 0.1 ug/ml, 6 hours post wound): 85% | Percentage of 1 hour post wound size (corneal wounds; 0.1 ug/ml, 24 hours post wound): 69% | Percentage of 1 hour post wound size (corneal wounds; 0.1 ug/ml, 30 hours post wound): 43% | Percentage of 1 hour post wound size (corneal wounds; 0.1 ug/ml, 48 hours post wound): 2% | Percentage of 1 hour post wound size (corneal wounds; 0.1 ug/ml, 54 hours post wound): 0% | Percentage of 1 hour post wound size (corneal wounds; 0.1 ug/ml, 72 hours post wound): 0% | Corneal wound size (corneal wounds; 10 μg/ml eye drop three times daily, 48 hours post wound): 0.00 ± 0.07 mm^2 | Corneal wound size (corneal wounds; 10 μg/ml eye drop three times daily, 54 hours post wound): 0.00 ± 0.00 mm^2 | Corneal wound size (corneal wounds; 10 μg/ml eye drop three times daily, 72 hours post wound): 0.00 ± 0.00 mm^2 | Percentage of 1 hour post wound size (corneal wounds; 10 ug/ml, 0 hours post wound): 100% | Percentage of 1 hour post wound size (corneal wounds; 10 ug/ml, 6 hours post wound): 84% | Percentage of 1 hour post wound size (corneal wounds; 10 ug/ml, 24 hours post wound): 58% | Percentage of 1 hour post wound size (corneal wounds; 10 ug/ml, 30 hours post wound): 43% | Percentage of 1 hour post wound size (corneal wounds; 10 ug/ml, 48 hours post wound): 0% | Percentage of 1 hour post wound size (corneal wounds; 10 ug/ml, 54 hours post wound): 0% | Percentage of 1 hour post wound size (corneal wounds; 10 ug/ml, 72 hours post wound): 0% | Healing activity of corneal wounds (corneal wounds; 0.1 and 10 μg/ml vs control, rabbits): significant dose dependent accelerated healing activity | Wound healing speed compared with control at each time point (corneal wounds; wounds treated with 0.1 μg/ml or 10 μg/ml): healed faster | Toxicity on pathological analysis of corneas (rabbit corneas): no toxicity
